Values quoted from earlier work, collected in patent US20080014156A1, “PHOTOPROTECTANT COMPOSITION FOR PREVENTING SUNBURN AND SUN DAMAGE TO THE SKIN” (priority 2006, published 2008).

Details: relative to vitamin E

Compound: CC1=C(/C=C/C(C)=C/C=C/C(C)=C/C=C/C=C(C)/C=C/C=C(C)/C=C/C2=C(C)C(=O)[C@@H](O)CC2(C)C)C(C)(C)C[C@H](O)C1=O [Astaxanthin]
- antioxidant effectiveness compared with vitamin E: up to 550 times
